Experimental data as given in US7157083B2, “Compositions and methods for treating retroviral infections” (priority 1998, dated 2007).

Legend:
[1] = system: Rojo virus; test: Study 3 hyaluronidase sensitization assay: RT activity after Rojo challenge of naive PBMCs; assay type: cell-based, HIV-1
Experimental: Percent virus control (% VC) in the following tables is the mean RT activity (cpm) as a percentage of a virus control. Percent cell control (% CC) is the mean XTT absorbance as a percentage of a cell control.
Reverse transcriptase (RT) activity was measured in cell-free supernatants. Tritiated thymidine triphosphate (NEN) (TTP) was resuspended in distilled H2O at […]. Poly rA and oligo dT were prepared as a stock solution which was kept at −20° C. The RT reaction buffer was prepared fresh on a daily basis and consists of 125 μL 1.0 M EGTA, 125 μL d H2O, 110 μL 10% SDS, 50 μL 1.0 M Tris (pH 7.4), 50 μL 1.0 M DTT, and 40μ1.0 M MgCl2. These three solutions were mixed together in a ratio of 2 parts TTP, 1 part poly rA:oligo dT, and 1 part reaction buffer. Ten microliters of this reaction mixture was placed in a round bottom microtiter plate and 15 μL of virus containing supernatant was added and mixed. The plate was incubated at 37° C. in a water bath with a solid support to prevent submersion of the plate and incubated for 60 minutes. Following reaction, the reaction volume was spotted onto pieces of DE81 paper, washed 5 times for 5 minutes each in a 5% sodium phosphate buffer, 2 times for 1 minute each in distilled water, 2 times for 1 minute each in 70% ethanol, and then dried. Opti-Fluor O was added to each sample and incorporated radioactivity was quantitated utilizing a Wallace 1450 Microbetaplus liquid scintillation counter.
Assay Summary. […] The the monolayers were 3× washed with PBS, with Human PBMCs (5×10e4/well) returned to the monolayer. The PBMCs were either mixed donor, PHA blast, with IL2 supplemented medium, or were single donor non-PHA blast/no IL2 supplemented. After 72 hours, the PBMCs were removed, reset in a 96 well plate and then challenged with a standard MOI of the Rojo virus. The plates were incubated for an additional 6 days and then assayed for RT activity. The studies were produced in triplicate.

[2] = system: HIV-1; test: Study 5 overall: resistance of naive PBMCs to HIV-1 challenge (RT activity and P-24 assay); assay type: cell-based; details: monocytes and macrophages incubated with hyaluronidase treated heat inactivated or Aldrathiol-2 treated virus
Experimental: Control groups were not treated with the enzyme. The virus was then titrated on macrophage/monocyte cultures and incubated at 37° C. for 48 hours at which time the macrophages and monocytes were washed 3×, resuspended and placed in fresh wells. Naïve PBMC's were overlayed on the macrophage/monocyte cultures and incubated at 37° C. for 72 hours. The PBMC's were then separated, washed and placed in fresh wells with fresh medium and rested for 48 hours. After a 48 hour rest period, the PBMC's were challenged with HIV-1 with and without PHA, I1-2, or both. […] These various assays are presented below in Table 10 .

Hyaluronidase
RT activity % VC ([1]; 0.20 μg/mL, 5 μL GP120 IIIB, With PHA/IL2): 78.6% | RT activity % VC ([1]; 0.20 μg/mL, 5 μL GP120 IIIB, Without PHA/IL2): 155.9% | RT activity % VC ([1]; 0.20 μg/mL, 5 μL Rojo, With PHA/IL2): 88.8% | RT activity % VC ([1]; 0.20 μg/mL, 5 μL Rojo, Without PHA/IL2): 77.8% | RT activity % VC ([1]; 0.20 μg/mL, 10 μL Rojo, Without PHA/IL2): 112.8% | RT activity % VC ([1]; 0.20 μg/mL, 50 μL Rojo, With PHA/IL2): 79.1% | RT activity % VC ([1]; 0.20 μg/mL, 50 μL Rojo, Without PHA/IL2): 125.8% | RT activity % VC ([1]; 0.39 μg/mL, 5 μL GP120 IIIB, With PHA/IL2): 116.1% | RT activity % VC ([1]; 0.39 μg/mL, 5 μL GP120 IIIB, Without PHA/IL2): 195.6% | RT activity % VC ([1]; 0.39 μg/mL, 5 μL Rojo, With PHA/IL2): 79.7% | RT activity % VC ([1]; 0.39 μg/mL, 5 μL Rojo, Without PHA/IL2): 102.7% | RT activity % VC ([1]; 0.39 μg/mL, 10 μL Rojo, With PHA/IL2): 123.2% | RT activity % VC ([1]; 0.39 μg/mL, 10 μL Rojo, Without PHA/IL2): 115.9% | RT activity % VC ([1]; 0.39 μg/mL, 50 μL Rojo, With PHA/IL2): 87.6% | RT activity % VC ([1]; 0.39 μg/mL, 50 μL Rojo, Without PHA/IL2): 149.4% | RT activity % VC ([1]; 0.78 μg/mL, 5 μL GP120 IIIB, With PHA/IL2): 101.9% | RT activity % VC ([1]; 0.78 μg/mL, 5 μL GP120 IIIB, Without PHA/IL2): 134.4% | RT activity % VC ([1]; 0.78 μg/mL, 5 μL Rojo, With PHA/IL2): 68.2% | RT activity % VC ([1]; 0.78 μg/mL, 5 μL Rojo, Without PHA/IL2): 7.0% | RT activity % VC ([1]; 0.78 μg/mL, 10 μL Rojo, With PHA/IL2): 110.5% | RT activity % VC ([1]; 0.78 μg/mL, 10 μL Rojo, Without PHA/IL2): 97.6% | RT activity % VC ([1]; 0.78 μg/mL, 50 μL Rojo, With PHA/IL2): 102.6% | RT activity % VC ([1]; 1.56 μg/mL, 5 μL GP120 IIIB, With PHA/IL2): 98.0% | RT activity % VC ([1]; 1.56 μg/mL, 5 μL GP120 IIIB, Without PHA/IL2): 158.5% | RT activity % VC ([1]; 1.56 μg/mL, 5 μL Rojo, With PHA/IL2): 59.0% | RT activity % VC ([1]; 1.56 μg/mL, 5 μL Rojo, Without PHA/IL2): 6.4% | RT activity % VC ([1]; 1.56 μg/mL, 10 μL Rojo, With PHA/IL2): 125.9% | RT activity % VC ([1]; 1.56 μg/mL, 10 μL Rojo, Without PHA/IL2): 115.6% | RT activity % VC ([1]; 1.56 μg/mL, 50 μL Rojo, With PHA/IL2): 115.7% | RT activity % VC ([1]; 1.56 μg/mL, 50 μL Rojo, Without PHA/IL2): 146.0% | RT activity % VC ([1]; 3.1 μg/mL, 5 μL GP120 IIIB, With PHA/IL2): 85.5% | RT activity % VC ([1]; 3.1 μg/mL, 5 μL GP120 IIIB, Without PHA/IL2): 145.7% | RT activity % VC ([1]; 3.1 μg/mL, 5 μL Rojo, With PHA/IL2): 56.0% | RT activity % VC ([1]; 3.1 μg/mL, 5 μL Rojo, Without PHA/IL2): 9.7% | RT activity % VC ([1]; 3.1 μg/mL, 10 μL Rojo, With PHA/IL2): 117.8% | RT activity % VC ([1]; 3.1 μg/mL, 10 μL Rojo, Without PHA/IL2): 97.3% | RT activity % VC ([1]; 3.1 μg/mL, 50 μL Rojo, With PHA/IL2): 97.3% | RT activity % VC ([1]; 3.1 μg/mL, 50 μL Rojo, Without PHA/IL2): 86.8% | RT activity % VC ([1]; 6.3 μg/mL, 5 μL GP120 IIIB, With PHA/IL2): 105.3% | RT activity % VC ([1]; 6.3 μg/mL, 5 μL GP120 IIIB, Without PHA/IL2): 71.7% | RT activity % VC ([1]; 6.3 μg/mL, 5 μL Rojo, Without PHA/IL2): 15.7% | RT activity % VC ([1]; 6.3 μg/mL, 10 μL Rojo, Without PHA/IL2): 67.1% | RT activity % VC ([1]; 6.3 μg/mL, 50 μL Rojo, With PHA/IL2): 61.3% | RT activity % VC ([1]; 6.3 μg/mL, 50 μL Rojo, Without PHA/IL2): 21.3% | RT activity % VC ([1]; 25 μg/mL, 5 μL GP120 IIIB, With PHA/IL2): 85.5% | RT activity % VC ([1]; 25 μg/mL, 5 μL GP120 IIIB, Without PHA/IL2): 8.8% | RT activity % VC ([1]; 25 μg/mL, 5 μL Rojo, Without PHA/IL2): 8.8% | RT activity % VC ([1]; 25 μg/mL, 10 μL Rojo, With PHA/IL2): 97.3% | RT activity % VC ([1]; 25 μg/mL, 10 μL Rojo, Without PHA/IL2): 2.3% | RT activity % VC ([1]; 25 μg/mL, 50 μL Rojo, With PHA/IL2): 73.4% | RT activity % VC ([1]; 25 μg/mL, 50 μL Rojo, Without PHA/IL2): 8.4% | resistance of naïve PBMC's to HIV-1 challenge [2]: up to 100%
